The source of these data is paper PMC12040169 (PLOS Biology, 2025).

The data set can be described thus: in vitro. Conditions: human, hela cells, % viability.
What is called viability is a read-out of living cells in per cent, often relative to untreated cells. `CC1Cc2cc(-c3cn4ccccc4n3)ccc2N1S(C)(=O)=O` (stereo not shown) [CBK285194]: the viability at 28.5 h, 10 µM was found to be 94.3%.
Consider `Cc1c(C(=O)N2CCC(c3nc(C)n4ccsc34)CC2)cnn1C` [CBK285201], for which the viability at 28.5 h, 10 µM was 111%.
For `OC1(c2cccnc2)C2CCCC1CN(Cc1cccc(F)c1F)C2` (stereo not shown) [CBK285205], the viability at 28.5 h, 10 µM turned out to be 88.1%.
For `Cn1ccnc1C1(O)C2CCCC1CN(Cc1ccccc1F)C2` (stereo not shown) [CBK285206], the viability at 28.5 h, 10 µM stood at 97.2%.
Consider `Cn1nccc1C(=O)NC(Cc1cccs1)c1ccccn1` (stereo not shown) [CBK285207], for which the viability at 28.5 h, 10 µM is 96.1%.
`Cc1ccc(C(=O)NC(Cc2cccs2)c2ccccn2)c(=O)[nH]1` (stereo not shown) [CBK285210]: the viability at 28.5 h, 10 µM worked out at 89.8%.
The same measure for `Cc1ccn2cc(-c3ccc4c(c3)CCN4S(C)(=O)=O)nc2c1` [CBK285221]: 88.3%; for `O=C(NC1CC1)C1(Cc2ccccc2-c2cccnc2)CCOCC1` [CBK285222]: 88.7%.
`CC(=O)N1CCc2cc(-c3cc4ccccn4c3)ccc21` [CBK285224]: the viability at 28.5 h, 10 µM is 104%.
Turning to `Cc1cccn2cc(-c3ccc4c(c3)CCN4S(C)(=O)=O)cc12` [CBK285226], the viability at 28.5 h, 10 µM was 95.5%.
On to `CC(=O)N1CCc2cc(-c3cc4cc(C)ccn4c3)ccc21` [CBK285228], for which the viability at 28.5 h, 10 µM came to 75.2%.
`Cn1ncc2c1CCCN(C(=O)COc1ccc(F)cc1F)C2` [CBK285229]: the viability at 28.5 h, 10 µM was determined as 90.6%.
As to `CC(Oc1ccc(F)cc1)C(=O)N1CCCc2c(cnn2C)C1` (stereo not shown) [CBK285230], the viability at 28.5 h, 10 µM was 82.1%.
Turning to `Cn1ncc2c1CCCN(C(=O)Cc1ccc(Cl)cc1)C2` [CBK285231], the viability at 28.5 h, 10 µM was determined as 106%.
`CC1CCc2noc(C3CCN(C(=O)c4ccnn4C)CC3)c2C1` (stereo not shown) [CBK285232]: the viability at 28.5 h, 10 µM was determined as 105%.
As to `Cc1nc(C2CCCN(C(=O)c3cccnc3)C2)c2sccn12` (stereo not shown) [CBK285233], the viability at 28.5 h, 10 µM came out at 93%.
On to `Cc1nc(C2CCCN(C(=O)c3ccnn3C)C2)c2sccn12` (stereo not shown) [CBK285235], for which the viability at 28.5 h, 10 µM stood at 87.2%.
Turning to `Cc1csc2c(C3CCCN(C(=O)c4cc[nH]n4)C3)nc(C)n12` (stereo not shown) [CBK285238], the viability at 28.5 h, 10 µM is 88.1%.
Consider `Cc1nc(C2CCN(C(=O)c3cscn3)CC2)c2sccn12` [CBK285240], for which the viability at 28.5 h, 10 µM was found to be 107%.
As to `Cc1csc2c(C3CCN(C(=O)c4cccnc4)CC3)nc(C)n12` [CBK285242], the viability at 28.5 h, 10 µM turned out to be 85.1%.
Consider `Cc1csc2c(C3CCN(C(=O)c4ccncc4)CC3)nc(C)n12` [CBK285243], for which the viability at 28.5 h, 10 µM turned out to be 84.4%.
For `Cc1cc(C(=O)N2CCC(c3nc(C)n4c(C)csc34)CC2)on1` [CBK285247], the viability at 28.5 h, 10 µM is 99.3%.
As for `Cc1csc2c(C3CCN(C(=O)c4ccnn4C)CC3)nc(C)n12` [CBK285249], the viability at 28.5 h, 10 µM came out at 94.3%.
The value for `Cc1ccn2cc(-c3ccc4c(c3)CC(C)N4S(C)(=O)=O)cc2c1` (stereo not shown) [CBK285253] was 89%.
The value for `Cn1ncc2c1CCCN(C(=O)CCc1ccccc1F)C2` [CBK285255] was 96.8%.
For the compound `CS(=O)(=O)N1CCc2cc(-c3cc4ccccn4c3)ccc21` [CBK285256], the viability at 28.5 h, 10 µM was determined as 107%.
For `CCCC(=O)N1CCC(c2nc3ccccc3cc2NC(C)=O)CC1` [CBK285258], the viability at 28.5 h, 10 µM was found to be 78.4%.
Consider `COc1ccc(-c2cc(C3CCN(C(=O)C4CC4)C3)[nH]n2)cc1` (stereo not shown) [CBK285263], for which the viability at 28.5 h, 10 µM stood at 91.5%.
As for `CCNC(=O)[C@H]1CN(Cc2ccccc2)C[C@@H]1C(=O)c1ccccc1` [CBK285265], the viability at 28.5 h, 10 µM amounted to 88.1%.
In the case of `Cc1ccc(C(=O)N2C[C@H]3CC[C@](O)(c4ccc(F)cc4)[C@H]3C2)o1` [CBK285267], the viability at 28.5 h, 10 µM was found to be 95%.
On to `Cn1ccc(C(=O)NC(Cc2ccsc2)c2ccccn2)cc1=O` (stereo not shown) [CBK285273], for which the viability at 28.5 h, 10 µM came to 97.5%.
As for `COCC(=O)N1CCc2cc(-c3cn4ccccc4n3)ccc21` [CBK285274], the viability at 28.5 h, 10 µM is 81.9%.
Consider `CC(=O)N1C[C@H]2CCCN(S(=O)(=O)c3cccs3)[C@H]2C1` [CBK285275], for which the viability at 28.5 h, 10 µM came to 84.3%.
In the case of `Cc1cc(OCC(=O)N2CCCc3c(cnn3C)C2)ccc1Cl` [CBK285277], the viability at 28.5 h, 10 µM is 93.3%.
As for `Cn1ncc2c1CCCN(C(=O)CCCOc1ccccc1F)C2` [CBK285278], the viability at 28.5 h, 10 µM stood at 85%.
Turning to `CS(=O)(=O)N1C2CCC(C2)[C@H]1COc1ccc(F)cc1` (stereo partly shown) [CBK285279], the viability at 28.5 h, 10 µM was determined as 108%.
Take `CCS(=O)(=O)N1C2CCC(C2)[C@H]1COc1ccc(F)cc1` (stereo partly shown) [CBK285280]: the viability at 28.5 h, 10 µM is 109%.
In the case of `COc1ccc(-c2cc(C3CCN(C4CCSCC4)C3)[nH]n2)cc1` (stereo not shown) [CBK285282], the viability at 28.5 h, 10 µM was 99.3%.
With `COc1ccc(CC(=O)N2CCCc3c(cnn3C)C2)cc1F` [CBK285285], the viability at 28.5 h, 10 µM was 87.9%.
As for `Cn1ncc2c1CCCN(C(=O)COc1ccc(C(C)(C)C)cc1)C2` [CBK285286], the viability at 28.5 h, 10 µM turned out to be 115%.
The value for `Cc1ccc(OCCCC(=O)N2CCCc3c(cnn3C)C2)c(C)c1` [CBK285288] was 96.9%.
For `Cc1cnccc1CN1CCC[C@@H]2CN(C(=O)CC(C)C)C[C@@H]21` [CBK285289], the viability at 28.5 h, 10 µM worked out at 104%.
Regarding `Cc1cccc(CN2CCC[C@@H]3CN(C(=O)CC(C)C)C[C@@H]32)n1` [CBK285291], the viability at 28.5 h, 10 µM is 108%.
Consider `CC(C)S(=O)(=O)N1C2CCC(C2)[C@@H]1COc1ccc(F)cc1` (stereo partly shown) [CBK285292], for which the viability at 28.5 h, 10 µM stood at 101%.
For the compound `CC(=O)N1C[C@H]2CCCN(S(=O)(=O)c3ccc(Cl)s3)[C@H]2C1` [CBK285293], the viability at 28.5 h, 10 µM stood at 105%.
Regarding `CC(C)N1C[C@@H](C(=O)NC(C)(C)C)[C@@]2(Cc3ccccc3C(=O)N2)C1` [CBK285295], the viability at 28.5 h, 10 µM came to 101%.
The value for `CCS(=O)(=O)N1C[C@H]2CC[C@](O)(c3ccc(C)cc3)[C@H]2C1` [CBK285296] was 107%; that for `Cc1sc2c(C3CCN(C(=O)C4CC4)CC3)nc(C)n2c1C` [CBK285298] was 101%.
With `Cc1sc2c(C3CCN(C(=O)C4CC4C)CC3)nc(C)n2c1C` (stereo not shown) [CBK285299], the viability at 28.5 h, 10 µM is 66.4%.
The value for `O=c1c2cc(F)ccc2nc2n1CCN(Cc1ccccc1)CC2` [CBK285300] was 94.5%; that for `Cc1ccc2c(c1)c(=O)cc(C(F)(F)F)n2C[C@H]1CCCN1` [CBK285303] was 36.2%; that for `CCCC(=O)N1CCC(c2cc(C(F)F)c3c(C)noc3n2)CC1` [CBK285304] was 102%.
As to `Cc1noc2nc(C3CCN(C(=O)C(C)C)CC3)cc(C(F)F)c12` [CBK285305], the viability at 28.5 h, 10 µM is 79.9%.
With `Fc1ccc(-c2[nH]c3ncccc3c2CN2CCOCC2)cc1` [CBK285310], the viability at 28.5 h, 10 µM is 111%.
With `CC(C)c1[nH]c2ncccc2c1CN1CCSCC1` [CBK285312], the viability at 28.5 h, 10 µM amounted to 94%.
For `c1cnc2[nH]c(C3CC3)c(CN3CCN4CCCCC4C3)c2c1` (stereo not shown) [CBK285313], the viability at 28.5 h, 10 µM is 81.5%.
On to `Cc1cc2c(cc1C)OC1(C=C2)CCN(C(=O)N2CCOCC2)CC1` [CBK285314], for which the viability at 28.5 h, 10 µM was 94.4%.
For `Cc1ccc(S(=O)(=O)N2C[C@H]3C[C@H](NC(=O)C(C)C)[C@H]3C2)cc1` [CBK285317], the viability at 28.5 h, 10 µM was 107%.
